For 22 compounds, inhibition results are on record in patent US10435399B2, “HDAC6 inhibitory heterocyclic compound” (TAKEDA PHARMACEUTICAL COMPANY LIMITED, priority 2017, dated 2019).

This test concerns the target T1, HDAC6 enzyme (Homo sapiens, UniProt Q9UBN7).
T1 construct: transducing full length HDAC6 gene into Sf-9 insect cells; GST; purchased SignalChem; host or cells: Sf-9 insect cells
T1 sequence (Q9UBN7 1-1215): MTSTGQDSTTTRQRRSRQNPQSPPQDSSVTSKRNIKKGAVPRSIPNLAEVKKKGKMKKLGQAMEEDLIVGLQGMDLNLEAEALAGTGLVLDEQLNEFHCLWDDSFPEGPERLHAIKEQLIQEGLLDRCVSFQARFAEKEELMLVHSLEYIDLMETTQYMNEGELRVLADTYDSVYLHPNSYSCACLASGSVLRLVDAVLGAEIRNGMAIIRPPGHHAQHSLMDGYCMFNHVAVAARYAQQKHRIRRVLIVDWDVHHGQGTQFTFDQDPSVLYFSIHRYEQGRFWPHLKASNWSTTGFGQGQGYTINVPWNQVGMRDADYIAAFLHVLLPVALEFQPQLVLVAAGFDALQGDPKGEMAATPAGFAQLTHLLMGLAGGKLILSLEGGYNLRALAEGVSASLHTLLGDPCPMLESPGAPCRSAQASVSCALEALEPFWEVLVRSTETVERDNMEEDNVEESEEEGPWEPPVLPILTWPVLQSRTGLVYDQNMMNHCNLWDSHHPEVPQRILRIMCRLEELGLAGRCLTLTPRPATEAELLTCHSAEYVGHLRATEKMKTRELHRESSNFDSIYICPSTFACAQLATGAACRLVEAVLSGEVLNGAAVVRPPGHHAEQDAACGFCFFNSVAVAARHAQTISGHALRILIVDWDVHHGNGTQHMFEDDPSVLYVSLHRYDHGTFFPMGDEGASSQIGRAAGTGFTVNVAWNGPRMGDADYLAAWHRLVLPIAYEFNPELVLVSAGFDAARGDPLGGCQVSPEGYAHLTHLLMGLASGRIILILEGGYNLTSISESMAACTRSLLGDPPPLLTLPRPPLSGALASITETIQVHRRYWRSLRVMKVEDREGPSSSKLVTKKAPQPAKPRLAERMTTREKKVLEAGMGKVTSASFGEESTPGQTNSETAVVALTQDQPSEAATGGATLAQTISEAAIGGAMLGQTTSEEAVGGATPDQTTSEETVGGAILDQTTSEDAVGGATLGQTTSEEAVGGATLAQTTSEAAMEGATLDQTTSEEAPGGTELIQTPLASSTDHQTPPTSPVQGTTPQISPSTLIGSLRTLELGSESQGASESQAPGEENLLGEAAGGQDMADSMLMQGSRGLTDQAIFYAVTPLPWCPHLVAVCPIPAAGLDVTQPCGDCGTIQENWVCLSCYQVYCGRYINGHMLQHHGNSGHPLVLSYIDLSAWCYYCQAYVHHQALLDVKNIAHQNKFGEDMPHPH
Briefly: HDAC6 enzyme inhibitory activity (HDAC-Glo I/II Assay kit). The class given is biochemical. The note with it: 10 μM; wells without enzyme = 100% inhibition; read-out: HDAC6 inhibitory rate (%) (10 μM). Put shortly: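 Luminescence read-out after 20 min reaction with HDAC-Glo substrate-developer, following 60 min room-temperature preincubation of compound with Sf-9-expressed, GST-purified full-length enzyme. Inhibition is relative to no-enzyme wells set as 100%.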
Regarding `O=C1c2cc(-c3nnc(C(F)F)o3)cnc2CN1[C@@H]1CCCC[C@H]1NC(=O)C(F)(F)C(F)(F)F` [Example 196, N-((1R,2R)-2-(3-(5-(difluoromethyl)-1,3,4-oxadiazol-2-yl)-5-oxo-5,7-dihydro-6H-pyrrolo[3,4-b]pyridin-6-yl)cyclohexyl)-2,2,3,3,3-pentafluoropropanamide], the inhibition at 10 µM came out at 100%. Next, `O=C1c2cc(-c3nnc(C(F)F)o3)cc(F)c2CN1C[C@H]1COCCN1S(=O)(=O)C1CC1` [Example 197, 2-(((3S)-4-(cyclopropylsulfonyl)morpholin-3-yl)methyl)-6-(5-(difluoromethyl)-1,3,4-oxadiazol-2-yl)-4-fluoroisoindolin-1-one]: 100%. In the case of `Cc1ccc(S(=O)(=O)N2CCOC[C@@H]2CN2Cc3c(F)cc(-c4nnc(C(F)F)o4)cc3C2=O)cc1` [Example 198, 6-(5-(difluoromethyl)-1,3,4-oxadiazol-2-yl)-4-fluoro-2-(((3S)-4-((4-methylphenyl)sulfonyl)morpholin-3-yl)methyl)isoindolin-1-one], the inhibition at 10 µM stood at 99%. With `O=C1c2cc(-c3nnc(C(F)F)o3)cc(F)c2CN1C[C@H]1COCCN1S(=O)(=O)CC(F)(F)F` [Example 199, 6-(5-(difluoromethyl)-1,3,4-oxadiazol-2-yl)-4-fluoro-2-(((3S)-4-((2,2,2-trifluoroethyl)sulfonyl)morpholin-3-yl)methyl)isoindolin-1-one], the inhibition at 10 µM was 100%.

`O=C1c2cc(-c3nnc(C(F)F)o3)cc(F)c2CN1[C@@H]1CCOC[C@H]1NC(=O)C(F)(F)C(F)(F)F` [Example 200, N-((3S,4R)-4-(6-(5-(difluoromethyl)-1,3,4-oxadiazol-2-yl)-4-fluoro-1-oxo-1,3-dihydro-2H-isoindol-2-yl)tetrahydro-2H-pyran-3-yl)-2,2,3,3,3-pentafluoropropanamide]: the inhibition at 10 µM is 100%.

As to `O=C1c2cc(-c3nnc(C(F)F)o3)cc(F)c2CN1[C@@H]1CCOC[C@H]1NC(=O)C1(C(F)(F)F)CC1` [Example 201, N-((3S,4R)-4-(6-(5-(difluoromethyl)-1,3,4-oxadiazol-2-yl)-4-fluoro-1-oxo-1,3-dihydro-2H-isoindol-2-yl)tetrahydro-2H-pyran-3-yl)-1-(trifluoromethyl)cyclopropanecarboxamide], the inhibition at 10 µM amounted to 101%. As to `CC(C)(C(=O)N[C@@H]1COCC[C@H]1N1Cc2c(F)cc(-c3nnc(C(F)F)o3)cc2C1=O)C(F)(F)F` [Example 202, N-((3S,4R)-4-(6-(5-(difluoromethyl)-1,3,4-oxadiazol-2-yl)-4-fluoro-1-oxo-1,3-dihydro-2H-isoindol-2-yl)tetrahydro-2H-pyran-3-yl)-3,3,3-trifluoro-2,2-dimethylpropanamide], the inhibition at 10 µM was 101%.

For `CCC(F)(F)C(=O)N[C@@H]1COCC[C@H]1N1Cc2c(F)cc(-c3nnc(C(F)F)o3)cc2C1=O` [Example 203, N-((3S,4R)-4-(6-(5-(difluoromethyl)-1,3,4-oxadiazol-2-yl)-4-fluoro-1-oxo-1,3-dihydro-2H-isoindol-2-yl)tetrahydro-2H-pyran-3-yl)-2,2-difluorobutanamide], the inhibition at 10 µM is 100%. For the compound `CCC(F)(F)C(=O)N[C@@H]1CCOC[C@H]1N1Cc2c(F)cc(-c3nnc(C(F)F)o3)cc2C1=O` [Example 204], the inhibition at 10 µM was determined as 100%. Next, `O=C1c2cc(-c3nnc(C(F)F)o3)cc(F)c2CN1[C@@H]1COCC[C@H]1NC(=O)C1(C(F)(F)F)CCC1` [Example 205, N-((3S,4R)-3-(6-(5-(difluoromethyl)-1,3,4-oxadiazol-2-yl)-4-fluoro-1-oxo-1,3-dihydro-2H-isoindol-2-yl)tetrahydro-2H-pyran-4-yl)-1-(trifluoromethyl)cyclobutanecarboxamide]: 101%; `Cn1ccc(-c2ccccc2N2Cc3ccc(-c4nnc(C(F)F)o4)cc3C2=O)n1` [Example 206, 6-(5-(difluoromethyl)-1,3,4-oxadiazol-2-yl)-2-(2-(1-methyl-1H-pyrazol-3-yl)phenyl)isoindolin-1-one]: 100%; `Cn1cc(-c2ccccc2N2Cc3ccc(-c4nnc(C(F)F)o4)cc3C2=O)cn1` [Example 207, 6-(5-(difluoromethyl)-1,3,4-oxadiazol-2-yl)-2-(2-(1-methyl-1H-pyrazol-4-yl)phenyl)isoindolin-1-one]: 100%. The result for `O=C1c2cc(-c3nnc(C(F)F)o3)ccc2CN1c1ccccc1-c1cccnc1` [Example 208, 6-(5-(difluoromethyl)-1,3,4-oxadiazol-2-yl)-2-(2-(pyridin-3-yl)phenyl)isoindolin-1-one] reads 100%. The result for `O=C1c2cc(-c3nnc(C(F)F)o3)ccc2CN1CCOc1ccccc1` [Example 209, 6-(5-(difluoromethyl)-1,3,4-oxadiazol-2-yl)-2-(2-phenoxyethyl)isoindolin-1-one] reads 107%.

With `CCC(F)(F)C(=O)N[C@@H]1CCCC[C@H]1N1Cc2c(F)cc(-c3nnc(C(F)F)o3)cc2C1=O` [Example 210, N-((1R,2R)-2-(6-(5-(difluoromethyl)-1,3,4-oxadiazol-2-yl)-4-fluoro-1-oxo-1,3-dihydro-2H-isoindol-2-yl)cyclohexyl)-2,2-difluorobutanamide], the inhibition at 10 µM is 101%. The result for `CC1(C(=O)N[C@@H]2CCCC[C@H]2N2Cc3c(F)cc(-c4nnc(C(F)F)o4)cc3C2=O)COC1` [Example 211, N-((1R,2R)-2-(6-(5-(difluoromethyl)-1,3,4-oxadiazol-2-yl)-4-fluoro-1-oxo-1,3-dihydro-2H-isoindol-2-yl)cyclohexyl)-3-methyloxetane-3-carboxamide] reads 100%.

In the case of `O=C1c2cc(-c3nnc(C(F)F)o3)cc(F)c2CN1[C@@H]1CCOC[C@H]1NC(=O)C1(C(F)(F)F)CCC1` [Example 212, N-((3S,4R)-4-(6-(5-(difluoromethyl)-1,3,4-oxadiazol-2-yl)-4-fluoro-1-oxo-1,3-dihydro-2H-isoindol-2-yl)tetrahydro-2H-pyran-3-yl)-1-(trifluoromethyl)cyclobutanecarboxamide], the inhibition at 10 µM came out at 101%. The result for `CC(C)(OC(=O)N[C@@H]1COCC[C@H]1N1Cc2c(F)cc(-c3nnc(C(F)F)o3)cc2C1=O)C(F)(F)F` [Example 213, 1,1,1-trifluoro-2-methylpropan-2-yl ((3S,4R)-4-(6-(5-(difluoromethyl)-1,3,4-oxadiazol-2-yl)-4-fluoro-1-oxo-1,3-dihydro-2H-isoindol-2-yl)tetrahydro-2H-pyran-3-yl)carbamate] reads 100%; that for `CC(C)(F)C(=O)N[C@@H]1CCCC[C@H]1N1Cc2ncc(-c3nnc(C(F)F)o3)cc2C1=O` [Example 214, N-((1R,2R)-2-(3-(5-(difluoromethyl)-1,3,4-oxadiazol-2-yl)-5-oxo-5,7-dihydro-6H-pyrrolo[3,4-b]pyridin-6-yl)cyclohexyl)-2-fluoro-2-methylpropanamide], 100%. Next, `O=C1c2cc(-c3nnc(C(F)F)o3)cnc2CN1[C@@H]1CCCC[C@H]1NC(=O)C(F)(F)F` [Example 215, N-((1R,2R)-2-(3-(5-(difluoromethyl)-1,3,4-oxadiazol-2-yl)-5-oxo-5,7-dihydro-6H-pyrrolo[3,4-b]pyridin-6-yl)cyclohexyl)-2,2,2-trifluoroacetamide]: 101%; `O=C1c2cc(-c3nnc(C(F)F)o3)cnc2CN1[C@@H]1CCCC[C@H]1NC(=O)C1(F)CC1` [Example 216, N-((1R,2R)-2-(3-(5-(difluoromethyl)-1,3,4-oxadiazol-2-yl)-5-oxo-5,7-dihydro-6H-pyrrolo[3,4-b]pyridin-6-yl)cyclohexyl)-1-fluorocyclopropanecarboxamide]: 100%; `CC(C)(C(=O)N[C@@H]1CCCC[C@H]1N1Cc2ncc(-c3nnc(C(F)F)o3)cc2C1=O)C(F)(F)F` [Example 217, N-((1R,2R)-2-(3-(5-(difluoromethyl)-1,3,4-oxadiazol-2-yl)-5-oxo-5,7-dihydro-6H-pyrrolo[3,4-b]pyridin-6-yl)cyclohexyl)-3,3,3-trifluoro-2,2-dimethylpropanamide]: 98%.
